Reference: patent US20250345492A1, “AN ANTIBACTERIAL POLYPEPTIDE COMPOUND, A MEDICAL DEVICE, HYDROGEL AND USE THEREOF” (priority 2020, published 2025)
Converted amounts (≈) assume the structure as drawn. Where two headings read alike, the source gives them in different places. Ends that are not written are not given here. Peptide text beside a SMILES is read from it.

Experiments:
Acute toxicity in mice = test: Acute toxicity in mice; set-up: species or system Kunming mice; conditions: mouse, in vivo, ip, intraperitoneal injection, Karber method
Protocol: Acute toxicity of the compounds was determined by measuring the acute toxicity in mice with the compounds.
Taking compounds 2, 8, 9, 13 and 15 of the present invention as examples, […]. The mice used in this test were Kunming mice, which were placed in constant-temperature environment (22±1° C.) and could freely obtain water and food. Simply, 132 healthy Kunming mice were randomly divided into 11 groups, with 12 mice in each group (half male and half female), wherein, 5 groups were intraperitoneally injected with 0.2 ml of the compounds of different doses (100-1000 mg/kg), and the control group was intraperitoneally injected with normal saline. In this experiment, melittin was used as a reference control, and the other 5 groups were intraperitoneally injected with melittin of different doses (10-32 mg/kg). The state of mice was observed and recorded after 2 hours of administration, and then observed twice a day for 14 days, and the survival rates of the mice were recorded.

[1] = system: mouse mononuclear macrophage RAW264.7; test: Cytotoxicity, MTT colorimetry; format: cell-based
Protocol: (§1) For cytotoxicity determination, the MTT colorimetry was used to evaluate the effects of the compounds on the proliferation of human cervical cancer cell Hela, human embryonic renal epithelial cell HEK293 and mouse mononuclear macrophage RAW264.7.
(§2) Taking compounds 2, 8, 9, 13 and 15 of the present invention as examples, the cytotoxicity of the antibacterial polypeptide compounds was analyzed. Three cell lines were employed for the present invention, namely human cervical cancer cell Hela, human embryonic renal epithelial cell HEK293 and mouse mononuclear macrophage RAW264.7. Hela cells were cultured in RPMI 1640 medium with 10% newborn calf serum, HEK293 cells and RAW264.7 cells were cultured in DMEM medium with 10% fetal bovine serum. Simply, cells (1×10^4 cells/well) were inoculated to a 96-well plate and incubated in an incubator set to 5% CO2 at 37° C. After 24 hours, compounds of different concentrations were added and incubated in the 5% CO2 incubator. After 24 hours, 20 μL of MTT solution with a concentration of 5 mg/mL was added to each well and incubated for 4 hours. After that, the medium was removed with a pipet, and 150 μL of DMSO added to dissolve the purple-blue formazan crystals. The solution was shaken in an oscillator for 5 mins before detecting the absorbance value at 570 nm using the ELISA reader, and then the survival rate was calculated with the formula: (OD dosing group/OD control group)×100% (n=3).

[2] = system: human embryonic renal epithelial cell HEK293; test: Cytotoxicity, MTT colorimetry; format: cell-based
Protocol: as §1, §2

[3] = system: human cervical cancer cell Hela; test: Cytotoxicity, MTT colorimetry; format: cell-based
Protocol: as §1, §2

[4] = system: E-2b, clinical isolated drug-resistant strain ESBL; conditions: strain E-2b (ESBL)
Source text: (§3) With respect to the determination of antibacterial activity and antifungal activity of the antibacterial polypeptide compounds, the bacterial strains employed included: E. coli (ATCC 25922), E. coli (ATCC 43837), Pseudomonas aeruginosa (ATCC 27853), Klebsiella pneumoniae (ATCC 700603), Cronobacter sakazakii (ATCC 29544), Staphylococcus aureus (ATCC 29213), Bacillus subtilis (ATCC 23857) and Staphylococcus epidermidis (ATCC 12228); and the fungal strains employed included Candida albicans (ATCC 14053), Candida glabrata (ATCC 2001), Candida parapsilosis (ATCC 22019), Candida tropicalis (ATCC 750) and Candida krusei (ATCC 6258), all of which were standard strains from American Type Culture Collection. In addition, drug-resistant strains S-1a, S-2a, S-3a, S-4a, E-1b, E-2b, E-3b, E-4b, E-5b, P-1c, P-2c, P-3c, P-4c, P-5c, and clinically isolated fungal strains Candida glabrata 2-1 and Candida albicans 14-1, 14-2 and 14-3 were employed, all which were clinically isolated.
(§4) Simply, a proper amount of the cryopreserved bacterium or fungus was added to fresh MH/SD medium, and cultured on a shaker overnight at 180 rpm at 37° C. The obtained cells were seeded again and cultured on a shaker for 4-5 hours to obtain cells in logarithmic phase. The resulting cells were added to a 96-well plate (1×10^5 CFU/ml, 100 μL/well), and then 100 μL of polypeptide with different concentrations (1-256 μM) twice the final concentrations was added to corresponding well according to the 2-fold serial dilution method. The fresh medium was used as a negative control, which was prepared in triplicate for each concentration. After dosing, the 96-well plate was placed in an incubator at constant 37° C. and humidity for 12 hours to observe the results. According to naked eye observations, the concentration of the compound in the first transparent well following the turbid wells was recorded as the MIC of the compound, namely, the MIC value of the compound to the bacterium or fungus.

[5] = system: Bacillus subtilis (ATCC 23857)
Source text: as §3, §4

C. parapsilosis ATCC2001 = system: C. parapsilosis ATCC2001
Source text: as §3, §4

[6] = system: S-1a, clinical isolated drug-resistant strain MRSA; conditions: strain S-1a (MRSA)
Source text: as §3, §4

[7] = system: S-2a, clinical isolated drug-resistant strain MRSA; conditions: strain S-2a (MRSA)
Source text: as §3, §4

[8] = system: Staphylococcus aureus (ATCC 29213)
Source text: as §3, §4

C. glabrata ATCC22019 = system: C. glabrata ATCC22019
Source text: as §3, §4

[9] = system: P-1c, clinical isolated drug-resistant strain PA; conditions: strain P-1c (PA)
Source text: as §3, §4

[10] = system: P-4c, clinical isolated drug-resistant strain PA; conditions: strain P-4c (PA)
Source text: as §3, §4

C. tropicalis ATCC750 = system: C. tropicalis ATCC750
Source text: as §3, §4

[11] = system: S-3a, clinical isolated drug-resistant strain MRSA; conditions: strain S-3a (MRSA)
Source text: as §3, §4

E. coli (ATCC 25922) = system: E. coli (ATCC 25922)
Source text: as §3, §4

[12] = system: Cronobacter sakazakii (ATCC 29544)
Source text: as §3, §4

[13] = system: Pseudomonas aeruginosa (ATCC 27853); conditions: standard strain
Source text: as §3, §4

[14] = system: Staphylococcus epidermidis (ATCC 12228)
Source text: as §3, §4

[15] = system: E-4b, clinical isolated drug-resistant strain ESBL; conditions: strain E-4b (ESBL)
Source text: as §3, §4

[16] = system: P-2c, clinical isolated drug-resistant strain PA; conditions: strain P-2c (PA)
Source text: as §3, §4

[17] = system: P-3c, clinical isolated drug-resistant strain PA; conditions: strain P-3c (PA)
Source text: as §3, §4

[18] = system: S-4a, clinical isolated drug-resistant strain MRSA; conditions: strain S-4a (MRSA)
Source text: as §3, §4

[19] = system: P-5c, clinical isolated drug-resistant strain PA; conditions: strain P-5c (PA)
Source text: as §3, §4

C. krusei ATCC6258 = system: C. krusei ATCC6258
Source text: as §3, §4

[20] = system: E-1b, clinical isolated drug-resistant strain ESBL; conditions: strain E-1b (ESBL)
Source text: as §3, §4

[21] = system: E-5b, clinical isolated drug-resistant strain ESBL; conditions: strain E-5b (ESBL)
Source text: as §3, §4

C. albicans ATCC14053 = system: C. albicans ATCC14053
Source text: as §3, §4

[22] = system: E-3b, clinical isolated drug-resistant strain ESBL; conditions: strain E-3b (ESBL)
Source text: as §3, §4

| Molecule | LD50 (Acute toxicity in mice) [mg/kg] | MIC [4] [µM] | MIC [6] [µM] | MIC [7] [µM] | MIC [9] [µM] | MIC [10] [µM] | MIC [11] [µM] | MIC P. aerugmosa ATCC27853 [13] [µM] | MIC [15] [µM] | MIC [16] [µM] | MIC [17] [µM] | MIC [18] [µM] | MIC [19] [µM] | MIC [20] [µM] | MIC [21] [µM] | MIC [22] [µM] | effect on proliferation (inhibitory activity) [1] | effect on proliferation (inhibitory activity) [2] | effect on proliferation (inhibitory activity) [3] | MIC B. subtilis ATCC23857 ([5]; ATCC 23857) [µM] | further results |
| --- | --- | --- | --- | --- | --- | --- | --- | --- | --- | --- | --- | --- | --- | --- | --- | --- | --- | --- | --- | --- | --- |
| CC(C)C[C@H](NC(=O)[C@H](CCCCN)NC(=O)[C@H](CC(C)C)NC(=O)[C@H](CO)NC(=O)[C@H](CC(C)C)NC(=O)[C@H](CCCN)NC(=O)[C@H](Cc1ccccc1)NC(=O)[C@@H]1CCCN1)C(N)=O [Compound 2, Pro-Phe-Orn-Leu-Ser-Leu-Lys-Leu-NH2] (HELM PEPTIDE1{P.F.[Orn].L.S.L.K.L.[am]}$$$$V2.0) | > 1000 | 16 (≈ 14.9 µg/mL) | 64 (≈ 59.5 µg/mL) | 64 (≈ 59.5 µg/mL) | 8 (≈ 7.44 µg/mL) | 8 (≈ 7.44 µg/mL) | 64 (≈ 59.5 µg/mL) | 8 (≈ 7.44 µg/mL) | 8 (≈ 7.44 µg/mL) | 8 (≈ 7.44 µg/mL) | 8 (≈ 7.44 µg/mL) | 64 (≈ 59.5 µg/mL) | 8 (≈ 7.44 µg/mL) | 16 (≈ 14.9 µg/mL) | 8 (≈ 7.44 µg/mL) | 16 (≈ 14.9 µg/mL) |  |  |  |  | effect on proliferation (inhibitory activity) ([1]; RAW 264.7 cell line, MTT, 24 hours): no inhibitory activity; effect on proliferation (inhibitory activity) ([2]; HEK293 cell line, MTT, 24 hours): no inhibitory activity; effect on proliferation (inhibitory activity) ([3]; Hela cell line, MTT, 24 hours): no inhibitory activity; MIC B. subtilis ATCC23857 ([5]; standard strain): 16 µM (≈ 14.9 µg/mL); MIC C. parapsilosis ATCC2001 (C. parapsilosis ATCC2001; fungus): 16 µM (≈ 14.9 µg/mL); MIC S. aureus ATCC29213 ([8]; standard strain): 64 µM (≈ 59.5 µg/mL); MIC C. glabrata ATCC22019 (C. glabrata ATCC22019; fungus): 32 µM (≈ 29.8 µg/mL); MIC C. tropicalis ATCC750 (C. tropicalis ATCC750; fungus): 32 µM (≈ 29.8 µg/mL); MIC C. coli ATCC25922 (E. coli (ATCC 25922); standard strain): 16 µM (≈ 14.9 µg/mL); MIC C. sakazakii ATCC29544 ([12]; standard strain): 32 µM (≈ 29.8 µg/mL); MIC S. epidermidis ATCC12228 ([14]; standard strain): 16 µM (≈ 14.9 µg/mL); MIC C. krusei ATCC6258 (C. krusei ATCC6258; fungus): 32 µM (≈ 29.8 µg/mL); MIC C. albicans ATCC14053 (C. albicans ATCC14053; fungus): 32 µM (≈ 29.8 µg/mL) |
| PWKLSLHL-NH2 [Compound 8] | > 1000 | 16 | 64 | 64 | 16 | 8 | 64 | 16 | 16 | 8 | 8 | 64 | 8 | 16 | 16 | 16 | no inhibitory activity | no inhibitory activity | no inhibitory activity | 16 | MIC C. parapsilosis ATCC2001 (C. parapsilosis ATCC2001; ATCC2001): 16 µM; MIC S. aureus ATCC29213 ([8]; ATCC 29213): 64 µM; MIC C. glabrata ATCC22019 (C. glabrata ATCC22019; ATCC22019): 16 µM; MIC C. tropicalis ATCC750 (C. tropicalis ATCC750; ATCC750): 16 µM; MIC C. coli ATCC25922 (E. coli (ATCC 25922); ATCC 25922): 16 µM; MIC C. sakazakii ATCC29544 ([12]; ATCC 29544): 16 µM; MIC S. epidermidis ATCC12228 ([14]; ATCC 12228): 32 µM; MIC C. krusei ATCC6258 (C. krusei ATCC6258; ATCC6258): 32 µM; MIC C. albicans ATCC14053 (C. albicans ATCC14053; ATCC14053): 16 µM |
| PWRLRLHL-NH2 [Compound 13] | > 1000 | 8 | 32 | 32 | 8 | 4 | 32 | 4 | 8 | 4 | 4 | 32 | 4 | 8 | 4 | 4 | no inhibitory activity | no inhibitory activity | no inhibitory activity | 8 | MIC C. parapsilosis ATCC2001 (C. parapsilosis ATCC2001; ATCC2001): 8 µM; MIC S. aureus ATCC29213 ([8]; ATCC 29213): 32 µM; MIC C. glabrata ATCC22019 (C. glabrata ATCC22019; ATCC22019): 8 µM; MIC C. tropicalis ATCC750 (C. tropicalis ATCC750; ATCC750): 8 µM; MIC C. coli ATCC25922 (E. coli (ATCC 25922); ATCC 25922): 8 µM; MIC C. sakazakii ATCC29544 ([12]; ATCC 29544): 8 µM; MIC S. epidermidis ATCC12228 ([14]; ATCC 12228): 16 µM; MIC C. krusei ATCC6258 (C. krusei ATCC6258; ATCC6258): 32 µM; MIC C. albicans ATCC14053 (C. albicans ATCC14053; ATCC14053): 32 µM |
